From the supplement of paper PMC10920090

Assays:
[1] = tested on: MDA-MB-231; assay: drug sensitivity score (DSS), cytotoxicity CellTox Green; higher = more cytotoxic; extreme values may be limits of the assay; conditions: 72 h
[2] = tested on: MDA-MB-231; assay: drug sensitivity score (DSS), cell viability CellTiter-Glo; higher = more sensitive; extreme values may be limits of the assay; conditions: 72 h
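Wherever drug sensitivity score (DSS), cytotoxicity CellTox Green is given: DSS summarises each dose–response curve by combining IC50, EC50, maximal inhibition and efficacy across drug concentrations.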

Row | SMILES | drug sensitivity score ([1]; shRNA: shPPFIA1_1) | drug sensitivity score ([1]; shRNA: shScramble) | drug sensitivity score ([2]; shRNA: shPPFIA1_1) | drug sensitivity score ([2]; shRNA: shScramble)
1 | C=CCN(/C=C1/C(=O)O[C@H](COC)[C@@]2(C)C1=C(O)C(=O)C1=C2[C@H](OC(C)=O)C[C@]2(C)C(=O)CC[C@@H]12)CC=C [Sonolisib] | 0 DSS | 0 DSS | 0 DSS | 0 DSS
2 | CNC(=O)c1cc(Oc2ccc(NC(=O)Nc3ccc(Cl)c(C(F)(F)F)c3)cc2)ccn1 [Sorafenib] | 0 DSS | 0 DSS | 0 DSS | 0 DSS
3 | CN1CCN(c2nc(C3=C(c4c[nH]c5ccccc45)C(=O)NC3=O)c3ccccc3n2)CC1 [Sotrastaurin] | 0.7 DSS | 0 DSS | 1 DSS | 0 DSS
4 | C=CC(=O)Nc1cccc(Nc2nc(Nc3ccc(OCCOC)cc3)ncc2F)c1 [Spebrutinib] | 0 DSS | 0 DSS | 0 DSS | 0.4 DSS
5 | O=[N+]([O-])c1ccc2c(c1)S(=O)(=O)C=C2 [Stattic] | 4.4 DSS | 7.2 DSS | 6.6 DSS | 9.4 DSS
6 | CC(C)n1cnc2c(NCCc3ccc(O)cc3)nc(-c3csc4ccccc34)nc21 [StemRegenin 1] | 0.8 DSS | 0.4 DSS | 2.3 DSS | 0.2 DSS
7 | CN(N=O)C(=O)N[C@@H](C=O)[C@@H](O)[C@H](O)[C@H](O)CO [Streptozocin] | 0 DSS | 0 DSS | 0.1 DSS | 0.3 DSS
8 | CCN(CC)CCNC(=O)c1c(C)[nH]c(/C=C2\C(=O)Nc3ccc(F)cc32)c1C [Sunitinib] | 0 DSS | 0 DSS | 0 DSS | 1.1 DSS
9 | CC(C)(O)CC(=O)NCCn1ccc2ncnc(Nc3ccc(Oc4cccc(C(F)(F)F)c4)c(Cl)c3)c21 [TAK-285] | 0 DSS | 0 DSS | 0.9 DSS | 0 DSS
10 | N#Cc1c(Oc2ccc(F)c(NC(=O)Cc3cccc(C(F)(F)F)c3)c2)ccc2nc(NC(=O)C3CC3)sc12 [TAK-632] | 17.8 DSS | 5.3 DSS | 1.6 DSS | 8.7 DSS
11 | CCc1nc(-c2cccc(C)c2)c(-c2ccnc(NC(=O)c3ccccc3)c2)s1 [TAK-715] | 0.3 DSS | 0 DSS | 0 DSS | 0.8 DSS
12 | Cn1c(=O)c(F)c(Nc2ccc(I)cc2F)c2c(=O)n(C[C@@H](O)CO)cnc21 [TAK-733] | 6.9 DSS | 8.8 DSS | 4.8 DSS | 12.8 DSS
13 | CCS(=O)(=O)c1cccc(-c2cc(C(=O)NC3CCN(C)CC3)c(C)c3[nH]c4ncc(C)cc4c23)c1 [TAK-901] | 0 DSS | 0 DSS | 0 DSS | 3.6 DSS
14 | Cc1cccc(-c2[nH]c(CNc3ccccc3F)nc2-c2ccc3ncnn3c2)n1 [TEW-7197] | 0.9 DSS | 0 DSS | 9.1 DSS | 0 DSS
15 | Nc1nc(N)c2nc(-c3cccc(O)c3)c(-c3cccc(O)c3)nc2n1 [TG100-115] | 0 DSS | 0 DSS | 5.7 DSS | 19 DSS
16 | Cc1cc(C(C)Nc2ccccc2)c2nc(N3CCOCC3)cc(=O)n2c1 (stereo not given) [TGX-221] | 0.6 DSS | 0 DSS | 0 DSS | 3.2 DSS
17 | Nc1nc(NC2CC2)cc(-c2cccc(Cl)c2Cl)n1 [TH588] | 0.6 DSS | 0.5 DSS | 0.9 DSS | 0.8 DSS
18 | NC(=O)Nc1sc(-c2ccc(F)cc2)cc1C(N)=O [TPCA-1] | 0.9 DSS | 0 DSS | 0 DSS | 1.9 DSS
19 | Clc1ccccc1C(c1ccccc1)(c1ccccc1)n1cccn1 [TRAM-34] | 0 DSS | 0 DSS | 0 DSS | 0 DSS
20 | CC(=O)Nc1ccc(C(=O)Nc2ccccc2N)cc1 [Tacedinaline] | 0 DSS | 0 DSS | 0 DSS | 0 DSS
21 | C=CC[C@@H]1/C=C(\C)C[C@H](C)C[C@H](OC)[C@H]2O[C@@](O)(C(=O)C(=O)N3CCCC[C@H]3C(=O)O[C@H](/C(C)=C/[C@@H]3CC[C@@H](O)[C@H](OC)C3)[C@H](C)[C@@H](O)CC1=O)[C@H](C)C[C@@H]2OC [Tacrolimus] | 0 DSS | 0 DSS | 0 DSS | 0 DSS
22 | Cn1ncnc1[C@H]1c2n[nH]c(=O)c3cc(F)cc(c23)N[C@@H]1c1ccc(F)cc1 [Talazoparib] | 0 DSS | 0 DSS | 0 DSS | 0.4 DSS

Row | SMILES | drug sensitivity score ([1]; shRNA: shPPFIA1_1) | drug sensitivity score ([1]; shRNA: shScramble) | drug sensitivity score ([2]; shRNA: shPPFIA1_1) | drug sensitivity score ([2]; shRNA: shScramble)
23 | C[C@@H]1CN(Cc2ccc(F)cc2)[C@@H](C)CN1C(=O)c1cc2c(C(=O)C(=O)N(C)C)cn(C)c2cc1Cl [Talmapimod] | 0 DSS | 0 DSS | 0 DSS | 0 DSS
24 | COc1cc(Nc2ncc(F)c(Nc3ccc4c(n3)NC(=O)C(C)(C)O4)n2)cc(OC)c1OC [Tamatinib] | 0.2 DSS | 0 DSS | 0 DSS | 1.8 DSS
25 | CC/C(=C(\c1ccccc1)c1ccc(OCCN(C)C)cc1)c1ccccc1 [Tamoxifen] | 6.3 DSS | 1.8 DSS | 1.8 DSS | 1 DSS
26 | COc1cc2c(N3CCN(C(=O)Nc4ccc(OC(C)C)cc4)CC3)ncnc2cc1OCCCN1CCCCC1 [Tandutinib] | 0 DSS | 0 DSS | 9.9 DSS | 6.5 DSS
27 | C=CCNC1=C2C[C@@H](C)C[C@H](OC)[C@H](O)[C@@H](C)/C=C(\C)[C@H](OC(N)=O)[C@@H](OC)/C=C\C=C(/C)C(=O)NC(=CC1=O)C2=O [Tanespimycin] | 2 DSS | 3.1 DSS | 6.7 DSS | 12.3 DSS
28 | O[C@H]1CC[C@H](Nc2ncc3nc(Nc4c(F)cc(F)cc4F)n([C@H]4CCOC4)c3n2)CC1 [Tanzisertib] | 0 DSS | 0 DSS | 0 DSS | 3.1 DSS
29 | C[C@@H](C(=O)O)c1ccc(-c2ccccc2)c(F)c1 [Tarenflurbil] | 0 DSS | 0 DSS | 0 DSS | 0 DSS
30 | Cc1nc(-c2cn3c(n2)-c2ccc(-c4cnn(C(C)(C)C(N)=O)c4)cc2OCC3)n(C(C)C)n1 [Taselisib] | 0 DSS | 0 DSS | 0 DSS | 0.9 DSS
31 | COc1cccc2c1c(O)c(C(=O)N(C)c1ccc(C(F)(F)F)cc1)c(=O)n2C [Tasquinimod] | 0 DSS | 0 DSS | 0 DSS | 3.4 DSS
32 | CCN(c1cc(-c2ccc(CN3CCOCC3)cc2)cc(C(=O)NCc2c(C)cc(C)[nH]c2=O)c1C)C1CCOCC1 [Tazemetostat] | 0 DSS | 0 DSS | 1 DSS | 0 DSS
33 | CNC(=O)c1cc(COc2nnc(Nc3ccc(Cl)cc3)c3ccoc23)ccn1 [Telatinib] | 0 DSS | 0 DSS | 0 DSS | 0 DSS
34 | Cn1nnc2c(C(N)=O)ncn2c1=O [Temozolomide] | 0 DSS | 0 DSS | 1.8 DSS | 2.6 DSS
35 | COc1cc([C@@H]2c3cc4c(cc3[C@@H](O[C@@H]3O[C@@H]5CO[C@@H](c6cccs6)O[C@H]5[C@H](O)[C@H]3O)[C@H]3COC(=O)[C@H]23)OCO4)cc(OC)c1O [Teniposide] | 5.8 DSS | 5.3 DSS | 3.1 DSS | 9 DSS
36 | O=C1CCC(N2C(=O)c3ccccc3C2=O)C(=O)N1 (stereo not given) [Thalidomide] | 0 DSS | 0 DSS | 0 DSS | 0 DSS
37 | S=P(N1CC1)(N1CC1)N1CC1 [Thio-TEPA] | 0 DSS | 0 DSS | 0.9 DSS | 0.9 DSS
38 | Nc1nc2[nH]cnc2c(=S)[nH]1 [Thioguanine] | 0 DSS | 0 DSS | 5.1 DSS | 10.2 DSS
39 | O=c1sn(-c2cccc3ccccc23)c(=O)n1Cc1ccccc1 [Tideglusib] | 0 DSS | 0 DSS | 0 DSS | 0 DSS
40 | Cn1cncc1[C@@](N)(c1ccc(Cl)cc1)c1ccc2c(c1)c(-c1cccc(Cl)c1)cc(=O)n2C [Tipifarnib] | 5.9 DSS | 0.8 DSS | 3.5 DSS | 4 DSS
41 | O=C1NC(=O)[C@@H](c2cn3c4c(cccc24)CCC3)[C@@H]1c1c[nH]c2ccccc12 [Tivantinib] | 1.7 DSS | 0.5 DSS | 4.8 DSS | 3.8 DSS
42 | COc1cc2nccc(Oc3ccc(NC(=O)Nc4cc(C)on4)c(Cl)c3)c2cc1OC [Tivozanib] | 3.3 DSS | 0 DSS | 0 DSS | 1.9 DSS
43 | C[C@@H]1CCN(C(=O)CC#N)C[C@@H]1N(C)c1ncnc2[nH]ccc12 [Tofacitinib] | 0.9 DSS | 0.9 DSS | 0 DSS | 0 DSS
44 | CC[C@@]1(O)C(=O)OCc2c1cc1n(c2=O)Cc2cc3c(CN(C)C)c(O)ccc3nc2-1 [Topotecan] | 0.8 DSS | 1.5 DSS | 0 DSS | 5.8 DSS

Row | SMILES | drug sensitivity score ([1]; shRNA: shPPFIA1_1) | drug sensitivity score ([1]; shRNA: shScramble) | drug sensitivity score ([2]; shRNA: shPPFIA1_1) | drug sensitivity score ([2]; shRNA: shScramble)
45 | CN(C)CCOc1ccc(/C(=C(/CCCl)c2ccccc2)c2ccccc2)cc1 [Toremifene] | 4.6 DSS | 1.8 DSS | 2.4 DSS | 1.3 DSS
46 | CC(C)C[C@@H](C(=O)N[C@H](C(=O)OC1CCCC1)c1ccccc1)[C@H](O)C(=O)NO [Tosedostat] | 12.4 DSS | 7.8 DSS | 4.2 DSS | 2 DSS
47 | Cc1cc(Nc2cc(N3CCN(C)CC3)nc(Sc3ccc(NC(=O)C4CC4)cc3)n2)n[nH]1 [Tozasertib] | 1.6 DSS | 0.3 DSS | 0 DSS | 3 DSS
48 | CC1=C(/C=C/C(C)=C/C=C/C(C)=C/C(=O)O)C(C)(C)CCC1 [Tretinoin] | 0 DSS | 0 DSS | 0 DSS | 0 DSS
49 | NC(=S)N/N=C/c1ncccc1N [Triapine] | 0 DSS | 0 DSS | 0 DSS | 1.2 DSS
50 | O=C(CCCCCCC(=O)Nc1ccc([C@H]2O[C@@H](CSc3nc(-c4ccccc4)c(-c4ccccc4)o3)C[C@@H](c3ccc(CO)cc3)O2)cc1)NO [Tubacin] | 7.2 DSS | 2.2 DSS | 7.3 DSS | 5 DSS
51 | CN1CCc2c(c3ccccc3n2Cc2ccc(C(=O)NO)cc2)C1 [Tubastatin A] | 0.1 DSS | 0 DSS | 0 DSS | 1 DSS
52 | CN[C@@H]1C[C@H]2O[C@@](C)([C@@H]1OC)n1c3ccccc3c3c4c(c5c6ccccc6n2c5c31)C(=O)N[C@H]4O [UCN-01] | 16.6 DSS | 12.2 DSS | 17 DSS | 21.4 DSS
53 | COC(=O)c1ccc2c(c1)[nH]c1ncnc(NCCCN3CCCCC3)c12 [UM729] | 0 DSS | 0 DSS | 0 DSS | 0 DSS
54 | O=C(O)CSc1cc(NS(=O)(=O)c2ccc(Br)cc2)c2ccccc2c1O [UMI-77] | 8 DSS | 18.7 DSS | 3.2 DSS | 10.8 DSS
55 | COc1cc2c(NC3CCN(C(C)C)CC3)nc(C3CCCCC3)nc2cc1OCCCN1CCCC1 [UNC0638] | 7 DSS | 6.8 DSS | 8.3 DSS | 6.3 DSS
56 | COc1cc2c(NC3CCN(C(C)C)CC3)nc(N3CCC(F)(F)CC3)nc2cc1OCCCN1CCCC1 [UNC0642] | 3 DSS | 0.5 DSS | 3.5 DSS | 3.1 DSS
57 | O=C(c1ccc(C(=O)N2CCC(N3CCCC3)CC2)c(Nc2ccccc2)c1)N1CCC(N2CCCC2)CC1 [UNC1215] | 0 DSS | 0 DSS | 0.4 DSS | 0.3 DSS
58 | CCCCNc1ncc(C(=O)NCc2ccc(-n3ccnc3)cc2)c(NC2CCC(O)CC2)n1 (stereo not given) [UNC2881] | 0 DSS | 0 DSS | 0 DSS | 0.5 DSS
59 | NC(=O)c1cccc(-c2cccc(OC(=O)NC3CCCCC3)c2)c1 [URB597] | 0 DSS | 0 DSS | 0.2 DSS | 0 DSS
60 | CC(C)Nc1cc(-c2c[nH]c(C(=O)N[C@H](CO)c3cccc(Cl)c3)c2)c(Cl)cn1 [Ulixertinib] | 0 DSS | 2.7 DSS | 0 DSS | 2.1 DSS
61 | Cn1ncc(Cl)c1-c1cc(C(=O)N[C@H](CN)Cc2ccc(F)c(F)c2)oc1Cl [Uprosertib] | 0 DSS | 0 DSS | 0 DSS | 0 DSS
62 | Oc1ncc(N(CCCl)CCCl)c(O)n1 [Uramustine] | 0 DSS | 0 DSS | 0 DSS | 0 DSS
63 | CS(=O)(=O)c1ccc(-c2cnc(N)c(C(=O)Nc3ccccc3)n2)cc1 [VE-821] | 0 DSS | 0 DSS | 0 DSS | 0 DSS
64 | O=C(O)CC1CC(c2ccccc2)=NO1 (stereo not given) [VGX-1027] | 0 DSS | 0 DSS | 0 DSS | 0 DSS
65 | CNC(=O)c1ccccc1Nc1cc(Nc2ccc(N3CCOCC3)cc2OC)ncc1C(F)(F)F [VS-4718] | 0 DSS | 0 DSS | 0 DSS | 0 DSS
